Assay results published in ChEMBL document CHEMBL4507324 (2021).

How the values were obtained:
Settings in all cases: Compound concentration 100.0 nM
[1] = target: Non-receptor tyrosine-protein kinase TNK1 (Homo sapiens) (UniProt Q13470)
[2] = target: Proto-oncogene tyrosine-protein kinase Src (Homo sapiens) (UniProt P12931)
[3] = target: Calcium/calmodulin-dependent protein kinase kinase 2 (Homo sapiens) (UniProt Q96RR4)
[4] = target: Non-receptor tyrosine-protein kinase TYK2 (Homo sapiens) (UniProt P29597)
Sequence of Non-receptor tyrosine-protein kinase TYK2 (Homo sapiens) (P29597 whole entry): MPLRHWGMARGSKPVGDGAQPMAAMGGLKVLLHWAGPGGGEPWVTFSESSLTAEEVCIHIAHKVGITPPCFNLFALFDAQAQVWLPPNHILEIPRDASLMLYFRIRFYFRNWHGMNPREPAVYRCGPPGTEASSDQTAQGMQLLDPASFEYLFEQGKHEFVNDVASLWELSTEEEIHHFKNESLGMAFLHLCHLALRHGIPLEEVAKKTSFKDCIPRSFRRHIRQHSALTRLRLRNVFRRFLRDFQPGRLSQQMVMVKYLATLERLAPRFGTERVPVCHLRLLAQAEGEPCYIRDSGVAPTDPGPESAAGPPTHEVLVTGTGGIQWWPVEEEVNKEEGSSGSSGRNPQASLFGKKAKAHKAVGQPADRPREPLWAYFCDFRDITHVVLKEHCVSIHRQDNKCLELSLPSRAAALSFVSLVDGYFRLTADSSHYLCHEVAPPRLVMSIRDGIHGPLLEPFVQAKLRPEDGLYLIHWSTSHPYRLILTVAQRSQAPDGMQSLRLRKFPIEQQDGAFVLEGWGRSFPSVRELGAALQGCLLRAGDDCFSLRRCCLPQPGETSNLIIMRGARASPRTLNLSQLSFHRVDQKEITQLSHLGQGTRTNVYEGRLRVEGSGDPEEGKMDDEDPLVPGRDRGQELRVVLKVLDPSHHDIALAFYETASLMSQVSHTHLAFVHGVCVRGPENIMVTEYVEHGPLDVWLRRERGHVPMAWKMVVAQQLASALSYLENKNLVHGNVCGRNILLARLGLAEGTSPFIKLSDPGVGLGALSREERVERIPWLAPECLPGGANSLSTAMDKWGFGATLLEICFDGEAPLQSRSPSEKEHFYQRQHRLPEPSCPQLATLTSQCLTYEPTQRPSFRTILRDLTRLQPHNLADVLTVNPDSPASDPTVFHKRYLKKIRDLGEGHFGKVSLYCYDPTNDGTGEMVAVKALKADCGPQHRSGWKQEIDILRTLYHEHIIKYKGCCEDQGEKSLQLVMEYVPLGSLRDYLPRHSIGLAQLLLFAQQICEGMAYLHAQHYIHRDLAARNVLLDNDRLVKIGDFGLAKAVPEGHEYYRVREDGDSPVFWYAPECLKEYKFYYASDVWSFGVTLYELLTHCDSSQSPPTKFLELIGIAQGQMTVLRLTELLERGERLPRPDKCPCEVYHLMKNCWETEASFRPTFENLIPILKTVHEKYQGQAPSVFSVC

[5] = tested on: Epidermal growth factor receptor (Homo sapiens), P00533 [UNDEFINED MUTATION]
[6] = tested on: Phosphatidylinositol 4,5-bisphosphate 3-kinase catalytic subunit alpha isoform (Homo sapiens), P42336 [Q546K]
[7] = target: Tyrosine-protein kinase TXK (Homo sapiens) (UniProt P42681)
Sequence of Tyrosine-protein kinase TXK (Homo sapiens) (P42681 whole entry): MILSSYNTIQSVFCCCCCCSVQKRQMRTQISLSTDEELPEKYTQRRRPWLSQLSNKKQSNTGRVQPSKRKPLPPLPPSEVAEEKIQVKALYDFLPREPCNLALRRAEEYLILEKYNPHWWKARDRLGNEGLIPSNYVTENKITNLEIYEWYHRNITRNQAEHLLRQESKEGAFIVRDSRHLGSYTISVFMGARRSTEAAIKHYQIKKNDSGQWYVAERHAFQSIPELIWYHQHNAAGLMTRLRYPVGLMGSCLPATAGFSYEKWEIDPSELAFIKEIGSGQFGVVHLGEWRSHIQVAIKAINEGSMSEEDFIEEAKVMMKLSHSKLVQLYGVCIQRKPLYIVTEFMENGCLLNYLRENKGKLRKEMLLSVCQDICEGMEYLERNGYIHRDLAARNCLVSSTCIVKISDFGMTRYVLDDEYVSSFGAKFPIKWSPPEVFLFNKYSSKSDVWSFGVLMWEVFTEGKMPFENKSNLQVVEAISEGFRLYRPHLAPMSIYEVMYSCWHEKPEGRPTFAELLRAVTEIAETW

[8] = tested on: Receptor-type tyrosine-protein kinase FLT3 (Homo sapiens), P36888 [D835Y]
[9] = target: Non-receptor tyrosine-protein kinase TYK2 (Homo sapiens) (UniProt P29597); remark: listed apart in the source
[10] = target: Calcium/calmodulin-dependent protein kinase type 1G (Homo sapiens) (UniProt Q96NX5)
[11] = tested on: Epidermal growth factor receptor (Homo sapiens), P00533 [G719S]
[12] = target: Phosphatidylinositol 4,5-bisphosphate 3-kinase catalytic subunit gamma isoform (Homo sapiens) (UniProt P48736)
[13] = target: Protein kinase C delta type (Homo sapiens) (UniProt Q05655)
[14] = target: Rho-associated protein kinase 1 (Homo sapiens) (UniProt Q13464)
[15] = target: Tyrosine-protein kinase ABL2 (Homo sapiens) (UniProt P42684)
[16] = target: Serine/threonine-protein kinase Nek4 (Homo sapiens) (UniProt P51957)
[17] = target: Ephrin type-B receptor 2 (Homo sapiens) (UniProt P29323)
[18] = target: ALK tyrosine kinase receptor (Homo sapiens) (UniProt Q9UM73)
[19] = target: Dual specificity protein kinase TTK (Homo sapiens) (UniProt P33981)
[20] = tested on: Phosphatidylinositol 4,5-bisphosphate 3-kinase catalytic subunit alpha isoform (Homo sapiens), P42336 [E545A]
[21] = target: Serine/threonine-protein kinase WNK3 (Homo sapiens) (UniProt Q9BYP7)
[22] = target: Serine/threonine-protein kinase TNNI3K (Homo sapiens) (UniProt Q59H18)
[23] = target: Mitogen-activated protein kinase 4 (Homo sapiens) (UniProt P31152)
[24] = target: SRSF protein kinase 2 (Homo sapiens) (UniProt P78362)
[25] = target: Cyclin-dependent kinase 19 (Homo sapiens) (UniProt Q9BWU1)
Sequence of Cyclin-dependent kinase 19 (Homo sapiens) (Q9BWU1 whole entry): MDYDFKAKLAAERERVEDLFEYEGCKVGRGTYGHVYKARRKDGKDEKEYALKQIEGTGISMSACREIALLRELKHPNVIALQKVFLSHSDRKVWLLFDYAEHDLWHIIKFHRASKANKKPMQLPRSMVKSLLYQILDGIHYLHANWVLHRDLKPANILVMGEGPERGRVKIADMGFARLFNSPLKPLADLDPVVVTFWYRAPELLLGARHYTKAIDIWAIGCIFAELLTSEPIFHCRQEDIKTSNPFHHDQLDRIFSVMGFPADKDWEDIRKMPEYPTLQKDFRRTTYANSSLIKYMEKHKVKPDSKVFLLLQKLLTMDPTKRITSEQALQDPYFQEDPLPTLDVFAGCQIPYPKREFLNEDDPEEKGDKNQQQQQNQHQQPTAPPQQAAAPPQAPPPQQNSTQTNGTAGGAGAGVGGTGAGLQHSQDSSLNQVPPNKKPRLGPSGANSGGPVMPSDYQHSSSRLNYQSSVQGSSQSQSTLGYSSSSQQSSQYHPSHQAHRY

[26] = target: Ribosomal protein S6 kinase alpha-6 (Homo sapiens) (UniProt Q9UK32)
[27] = target: Serine/threonine-protein kinase Nek7 (Homo sapiens) (UniProt Q8TDX7)
[28] = tested on: Tyrosine-protein kinase ABL1 (Homo sapiens), P00519 [F317I]
[29] = target: Casein kinase I isoform gamma-2 (Homo sapiens) (UniProt P78368)
Sequence of Casein kinase I isoform gamma-2 (Homo sapiens) (P78368 whole entry, looked up, canonical isoform): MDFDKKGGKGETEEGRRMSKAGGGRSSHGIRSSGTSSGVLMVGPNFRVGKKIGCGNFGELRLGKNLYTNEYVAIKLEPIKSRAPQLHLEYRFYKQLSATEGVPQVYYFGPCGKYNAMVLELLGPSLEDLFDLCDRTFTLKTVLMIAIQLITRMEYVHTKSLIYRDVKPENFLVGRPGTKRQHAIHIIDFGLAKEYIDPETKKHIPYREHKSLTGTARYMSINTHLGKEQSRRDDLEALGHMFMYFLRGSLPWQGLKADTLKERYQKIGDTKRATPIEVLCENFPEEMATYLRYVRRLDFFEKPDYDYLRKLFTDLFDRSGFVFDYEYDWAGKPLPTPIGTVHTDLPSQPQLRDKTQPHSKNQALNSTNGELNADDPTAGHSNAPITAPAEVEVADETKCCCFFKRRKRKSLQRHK

[30] = target: Mitogen-activated protein kinase kinase kinase 9 (Homo sapiens) (UniProt P80192)
[31] = tested on: Tyrosine-protein kinase ABL1 (Homo sapiens), P00519 [E255K]
[32] = target: cAMP-dependent protein kinase catalytic subunit beta (Homo sapiens) (UniProt P22694)
[33] = target: Rhodopsin kinase GRK7 (Homo sapiens) (UniProt Q8WTQ7)
[34] = target: Ribosomal protein S6 kinase alpha-5 (Homo sapiens) (UniProt O75582)
[35] = target: MAP kinase-activated protein kinase 2 (Homo sapiens) (UniProt P49137)
Sequence of MAP kinase-activated protein kinase 2 (Homo sapiens) (P49137 whole entry, looked up): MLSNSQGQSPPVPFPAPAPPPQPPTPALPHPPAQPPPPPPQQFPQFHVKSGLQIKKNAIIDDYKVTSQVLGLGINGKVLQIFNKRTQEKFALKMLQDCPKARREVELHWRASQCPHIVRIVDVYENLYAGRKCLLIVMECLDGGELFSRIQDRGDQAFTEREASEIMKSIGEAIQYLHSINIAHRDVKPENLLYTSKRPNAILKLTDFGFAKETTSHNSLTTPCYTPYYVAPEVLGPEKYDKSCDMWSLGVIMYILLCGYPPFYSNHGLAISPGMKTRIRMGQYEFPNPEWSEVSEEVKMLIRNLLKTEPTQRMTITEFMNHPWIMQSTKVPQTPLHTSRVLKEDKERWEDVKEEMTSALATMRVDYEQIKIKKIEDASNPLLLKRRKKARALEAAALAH

[36] = target: Serine/threonine-protein kinase 35 (Homo sapiens) (UniProt Q8TDR2)
[37] = tested on: Tyrosine-protein kinase ABL1 (Homo sapiens), P00519 [F317L]
[38] = target: Aurora kinase A (Homo sapiens) (UniProt O14965)
[39] = target: Vascular endothelial growth factor receptor 3 (Homo sapiens) (UniProt P35916)
Sequence of Vascular endothelial growth factor receptor 3 (Homo sapiens) (P35916 whole entry, canonical isoform): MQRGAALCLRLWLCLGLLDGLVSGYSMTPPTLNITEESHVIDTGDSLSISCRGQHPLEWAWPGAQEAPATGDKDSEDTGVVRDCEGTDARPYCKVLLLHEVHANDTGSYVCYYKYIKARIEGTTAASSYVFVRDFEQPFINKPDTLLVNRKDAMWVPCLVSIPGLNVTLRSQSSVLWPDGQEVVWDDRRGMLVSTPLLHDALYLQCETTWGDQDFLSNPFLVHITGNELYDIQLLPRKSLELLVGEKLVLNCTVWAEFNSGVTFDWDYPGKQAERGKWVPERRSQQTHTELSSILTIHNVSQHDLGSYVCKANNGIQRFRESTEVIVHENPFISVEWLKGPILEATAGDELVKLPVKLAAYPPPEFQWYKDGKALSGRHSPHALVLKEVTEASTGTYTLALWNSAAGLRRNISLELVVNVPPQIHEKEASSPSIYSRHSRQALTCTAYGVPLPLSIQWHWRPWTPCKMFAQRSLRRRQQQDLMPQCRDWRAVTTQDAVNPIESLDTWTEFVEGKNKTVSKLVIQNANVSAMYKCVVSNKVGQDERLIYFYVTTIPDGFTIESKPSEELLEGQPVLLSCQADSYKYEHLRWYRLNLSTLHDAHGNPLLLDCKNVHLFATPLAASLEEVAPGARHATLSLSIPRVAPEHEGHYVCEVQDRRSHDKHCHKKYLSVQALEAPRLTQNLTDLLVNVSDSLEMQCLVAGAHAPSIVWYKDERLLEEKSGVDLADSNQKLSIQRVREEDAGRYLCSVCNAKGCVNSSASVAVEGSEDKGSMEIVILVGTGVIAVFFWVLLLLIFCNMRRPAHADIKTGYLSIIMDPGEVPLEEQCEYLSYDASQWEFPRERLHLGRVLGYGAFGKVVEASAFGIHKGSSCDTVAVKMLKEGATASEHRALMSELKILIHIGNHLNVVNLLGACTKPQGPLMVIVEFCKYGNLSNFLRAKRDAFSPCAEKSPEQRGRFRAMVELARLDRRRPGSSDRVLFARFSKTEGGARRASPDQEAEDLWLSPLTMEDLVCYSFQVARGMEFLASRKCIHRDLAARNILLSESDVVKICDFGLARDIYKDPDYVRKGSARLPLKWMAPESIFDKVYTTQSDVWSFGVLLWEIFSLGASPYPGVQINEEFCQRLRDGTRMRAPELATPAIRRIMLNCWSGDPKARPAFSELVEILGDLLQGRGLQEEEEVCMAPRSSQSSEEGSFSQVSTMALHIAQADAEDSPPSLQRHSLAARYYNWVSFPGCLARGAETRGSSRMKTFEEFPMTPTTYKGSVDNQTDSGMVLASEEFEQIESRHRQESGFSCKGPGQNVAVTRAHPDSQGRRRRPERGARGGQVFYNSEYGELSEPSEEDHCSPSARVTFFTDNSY

[40] = target: Casein kinase I isoform alpha-like (Homo sapiens) (UniProt Q8N752)
[41] = target: Cyclin-dependent kinase 8 (Homo sapiens) (UniProt P49336)
[42] = tested on: Proto-oncogene tyrosine-protein kinase receptor Ret (Homo sapiens), P07949 [V804M]
[43] = target: Serine/threonine-protein kinase 32C (Homo sapiens) (UniProt Q86UX6)
[44] = target: Interleukin-1 receptor-associated kinase 4 (Homo sapiens) (UniProt Q9NWZ3)
[45] = target: Tyrosine-protein kinase SYK (Homo sapiens) (UniProt P43405)

Sequence of Calcium/calmodulin-dependent protein kinase kinase 2 (Homo sapiens) (Q96RR4 2-588 limits assumed): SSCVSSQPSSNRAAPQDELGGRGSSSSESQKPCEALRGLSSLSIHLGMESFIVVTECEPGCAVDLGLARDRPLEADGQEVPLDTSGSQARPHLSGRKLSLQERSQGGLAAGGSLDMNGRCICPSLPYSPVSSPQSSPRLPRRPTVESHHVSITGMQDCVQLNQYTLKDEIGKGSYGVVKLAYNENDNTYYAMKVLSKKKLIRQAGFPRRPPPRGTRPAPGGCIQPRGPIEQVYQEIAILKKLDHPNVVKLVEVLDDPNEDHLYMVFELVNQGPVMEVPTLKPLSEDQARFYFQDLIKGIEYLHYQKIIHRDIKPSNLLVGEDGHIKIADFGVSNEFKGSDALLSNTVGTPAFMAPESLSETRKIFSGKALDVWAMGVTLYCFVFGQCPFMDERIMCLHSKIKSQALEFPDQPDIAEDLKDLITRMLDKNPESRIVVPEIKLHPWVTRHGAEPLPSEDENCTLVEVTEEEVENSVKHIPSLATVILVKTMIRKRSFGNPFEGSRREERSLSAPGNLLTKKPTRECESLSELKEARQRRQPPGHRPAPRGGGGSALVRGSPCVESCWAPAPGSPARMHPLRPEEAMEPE

CS(=O)(=O)N1CCCC(NC(=O)[C@H](CCC2CCCCC2)NC(=O)c2ccc(CNc3ncnc4c3nnn4-c3ccccc3)cc2)C1 (stereo not given in full) [SR-301]
residual activity [1]: 96% | residual activity [2]: 94% | residual activity [3]: 78% | residual activity [4]: 100% | residual activity [5]: 93% | residual activity [6]: 60% | residual activity [7]: 77% | residual activity [8]: 93% | residual activity [9]: 99% | residual activity [10]: 92% | residual activity [11]: 72% | residual activity [12]: 85% | residual activity [13]: 80% | residual activity [14]: 93% | residual activity [15]: 100% | residual activity [16]: 100% | residual activity [17]: 87% | residual activity [18]: 100% | residual activity [19]: 91% | residual activity [20]: 100% | residual activity [21]: 85% | residual activity [22]: 63% | residual activity [23]: 96% | residual activity [24]: 34% | residual activity [25]: 90% | residual activity [26]: 100% | residual activity [27]: 88% | residual activity [28]: 95% | residual activity [29]: 82% | residual activity [30]: 90% | residual activity [31]: 87% | residual activity [32]: 92% | residual activity [33]: 100% | residual activity [34]: 81% | residual activity [35]: 100% | residual activity [36]: 100% | residual activity [37]: 91% | residual activity [38]: 100% | residual activity [39]: 81% | residual activity [40]: 100% | residual activity [41]: 100% | residual activity [42]: 82% | residual activity [43]: 100% | residual activity [44]: 100% | residual activity [45]: 88%

CS(=O)(=O)N1CCCC(NC(=O)[C@H](CCC2CCCCC2)NC(=O)c2ccc(CNC(=O)c3cnc4ccccn34)cc2)C1 (stereo not given in full) [SR-302]
residual activity [1]: 100% | residual activity [2]: 100% | residual activity [3]: 88% | residual activity [4]: 86% | residual activity [5]: 90% | residual activity [6]: 90% | residual activity [7]: 91% | residual activity [8]: 100% | residual activity [9]: 84% | residual activity [10]: 84% | residual activity [11]: 100% | residual activity [12]: 96% | residual activity [13]: 100% | residual activity [14]: 100% | residual activity [15]: 56% | residual activity [16]: 100% | residual activity [17]: 100% | residual activity [18]: 100% | residual activity [19]: 91% | residual activity [20]: 99% | residual activity [21]: 85% | residual activity [22]: 89% | residual activity [23]: 100% | residual activity [24]: 83% | residual activity [25]: 100% | residual activity [26]: 97% | residual activity [27]: 100% | residual activity [28]: 85% | residual activity [29]: 70% | residual activity [30]: 65% | residual activity [31]: 74% | residual activity [32]: 100% | residual activity [33]: 91% | residual activity [34]: 90% | residual activity [35]: 76% | residual activity [36]: 100% | residual activity [37]: 100% | residual activity [38]: 100% | residual activity [39]: 95% | residual activity [40]: 99% | residual activity [41]: 42% | residual activity [42]: 100% | residual activity [43]: 85% | residual activity [44]: 100% | residual activity [45]: 93%
